Legend:
PBMCs = test: Flow cytometry of ACE2 and TMPRSS2 cell surface expression in PBMCs stimulated ex vivo; assay type: cell-based, human; conditions: mean±SEM
Procedure: Mouse IgG1 antibodies were used as the isotype controls.
PBMCs were ex vivo cultured with R848, LPS or medium alone for 4 hrs, 24 hrs, and 48 hrs. Representative flow cytometric analysis of surface expression of ACE2 and TMPRSS2 in cDC.
PBMCs were ex vivo cultured with PMA plus ionomycin for 4 h. Representative flow cytometric analysis of surface expression of TMPRSS2 in CD4+, CD8+ and total T cells.
For ex vivo stimulation assays analyzed by flow cytometry, fresh PBMCs were isolated from CPT tubes using a standard protocol. Briefly, whole blood cells were diluted with Ca^2+-free and Mg^2+-free PBS buffer (Corning, NY) containing 2% fetal bovine serum (FBS, R&D Systems, Minneapolis, MN) and 2 mM EDTA (VWR Life Science, Radnor, PA) and slowly overlaid onto Ficoll-Paque™ (GE healthcare, Chicago, IL) at 2:1 ratio by volume. The samples were centrifuged at RT for 20 min at 800×g with no braking. Next, the mononuclear cell layer at the plasma-Ficoll interface was moved into a new 50 ml tube and washed with PBS buffer and red blood cell lysis buffer at RT for 5 min. The isolated PBMCs were used on the day of isolation or placed at −80° C. for storage. Two million fresh or thawed PBMCs were transferred to each well of a round-bottom 96-well culture plate (Thermo Fisher Scientific) in 200 μL of RPMI medium containing 10% FBS. The thawed PBMCs were recovered for 2 h at 37° C. with 5% C02. In some experiments, PBMCs were treated with different concentrations of ES2 (Sigma Aldrich) or 0.25% DMSO (the vehicle for ES2 at the highest concentration; ATCC, Manassas, VA) for 1-2 h during recovery stage. The fresh and recovered cells were then cultured with 1 μg/ml R848, LPS, or medium alone for 4 h. For TCR-independent T cell stimulation, PBMCs were cultured in RPMI medium containing 10% FBS in the presence of phorbol 12-myristate 13-acetate (PMA) (50 ng/ml) and ionomycin (1 μM) for a total of 4 h at 37° C. After incubation, the cells were washed with wash buffer in PBS containing 2% FBS and 1 mM EDTA prior to staining.
Flow cytometry methods. Single-cell suspensions were centrifuged at 450×g for 7 min, resuspended in ice-cold staining buffer (1×PBS with 2% FBS), and placed in a 96-well round-bottom plate (Thermo Fisher Scientific). After incubation with human Fe receptor blocking solution (Biolegend, San Diego, CA) at 4° C. for 15 min, cells were stained with a mixture of fluorescent surface antibodies at 4° C. for 30 min. For intracellular staining, the cells were fixed with IC Fixation Buffer (eBiosciences™, Thermo Fisher Scientific) at 4° C. for 30 min followed by incubation with fluorescent intracellular antibody cocktail in 1× Intracellular Fixation & Permeabilization Buffer (eBiosciences™, Thermo Fisher Scientific) at 4° C. for 30 min. The full list of fluorescent antibodies used is in Table 1 below. DAPI was added to the unfixed cells with surface staining at a final concentration of 1 μg/ml immediately before sample acquisition. The stained samples were then acquired on a FACSCelesta™ flow cytometer (BO Biosciences) using BO FACSDiva software version 8.0.2 (BO Biosciences). All data were analyzed using FlowJo 10.5.3 (BO Biosciences).
Methods. Flow cytometry and qRT-PCR were utilized as described in Example 1.

Hela cells = conditions: cited from earlier work
[1] = system: ACE2 translocation to the cell surface of CD14+ monocytes; test: Flow cytometry of ACE2 surface expression in PBMCs pre-treated with ES2 before R848 or LPS; assay type: cell-based, human; conditions: PBMCs pre-treated with ES2 1-2 h, then R848 or LPS 4 h
Procedure: Bars represent mean±SEM of biologically independent samples, (n=3/group for 40 μM ES2 condition; n=4/group for all other conditions).
For ex vivo stimulation assays analyzed by flow cytometry, fresh PBMCs were isolated from CPT tubes using a standard protocol. Briefly, whole blood cells were diluted with Ca^2+-free and Mg^2+-free PBS buffer (Corning, NY) containing 2% fetal bovine serum (FBS, R&D Systems, Minneapolis, MN) and 2 mM EDTA (VWR Life Science, Radnor, PA) and slowly overlaid onto Ficoll-Paque™ (GE healthcare, Chicago, IL) at 2:1 ratio by volume. The samples were centrifuged at RT for 20 min at 800×g with no braking. Next, the mononuclear cell layer at the plasma-Ficoll interface was moved into a new 50 ml tube and washed with PBS buffer and red blood cell lysis buffer at RT for 5 min. The isolated PBMCs were used on the day of isolation or placed at −80° C. for storage. Two million fresh or thawed PBMCs were transferred to each well of a round-bottom 96-well culture plate (Thermo Fisher Scientific) in 200 μL of RPMI medium containing 10% FBS. The thawed PBMCs were recovered for 2 h at 37° C. with 5% C02. […]
Flow cytometry methods. […] All data were analyzed using FlowJo 10.5.3 (BO Biosciences). […]

blood myeloid cells = test: Mass cytometry (CyTOF) of surface ACE2 in whole blood myeloid cells stimulated ex vivo with R848; assay type: cell-based, human; conditions: 4 h ex vivo, COVID-19 patients and healthy controls, mean±SEM

Compound: lipopolysaccharide [LPS]
- ACE2+ TMPRSS2+ cDCs (PBMCs): 1.1%±0.21
- cell surface ACE2 localization in cDCs (PBMCs): 8.9%±0.98
- surface expression of TMPRSS2 in cDCs (PBMCs): 3.2%±0.87

Compound: COc1cc(/C=N/NC(=O)c2cccc(F)c2)cc(I)c1O [ES2, 3-fluoro-benzoic acid, (2E)-2-[(4-hydroxy-3-iodo-5-methoxyphenyl)methylene]hydrazide]
- recycling of endocytosed transferrin to the plasma membrane (Hela cells): inhibits
- rapid translocation of ACE2 to the monocyte cell surface [1]: blocked

Compound: CCOCc1nc2c(N)nc3ccccc3c2n1CC(C)(C)O [R848, resiquimod]
- ACE2+ TMPRSS2+ cDCs (PBMCs): 1.1%±0.21
- cell surface ACE2 localization in cDCs (PBMCs): 8.9%±0.98
- surface expression of TMPRSS2 in cDCs (PBMCs): 3.2%±0.87
- surface expression of ACE2 in CD14+ classic monocytes (blood myeloid cells): 11.0±2.7%
